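These data come from cells grown in 96-well plates and exposed to compound for 48 hours at five concentrations. At the GI50, growth is halved.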 The source made the active and inactive calls. No stated cut-off is given here; in the data, active = GI50 up to about 1.1 µM and inactive = higher.
Tests used:
Assay in all cases: inhibition of tumour cell growth, NCI panel, 48 h
HOP-92 = system: HOP-92
HCC 2998 = system: HCC 2998
SK-MEL-5 = system: SK-MEL-5
SNB-19 = system: SNB-19
UACC-62 = system: UACC-62
ACHN = system: ACHN
MDA-N = system: MDA-N
SF-539 = system: SF-539
SK-OV-3 = system: SK-OV-3
U-251 = system: U-251
NCI/ADR-RES = system: NCI/ADR-RES
UACC-257 = system: UACC-257
OVCAR-4 = system: OVCAR-4
MOLT-4 = system: MOLT-4
MCF7 = system: MCF7
A549 = system: A549
LOX IMVI = system: LOX IMVI
TK-10 = system: TK-10
M14 = system: M14
SK-MEL-2 = system: SK-MEL-2

Row | Structure (SMILES) | GI50 (HOP-92) | GI50 (HCC 2998) | GI50 (SK-MEL-5) | GI50 (SNB-19) | GI50 (UACC-62) | GI50 (ACHN) | GI50 (MDA-N) | GI50 (SF-539) | GI50 (SK-OV-3) | GI50 (U-251) | GI50 (NCI/ADR-RES) | GI50 (UACC-257) | GI50 (OVCAR-4) | GI50 (MOLT-4) | GI50 (MCF7) | GI50 (A549) | GI50 (LOX IMVI) | GI50 (TK-10) | GI50 (M14) | GI50 (SK-MEL-2)
1 | Cc1cccc(C2NC(=O)c3ccccc3N2)c1 (centres undefined) | > 58.9 µM (inactive) | 6.64 µM (inactive) | 3.38 µM (inactive) | 11 µM (inactive) | 6.24 µM (inactive) | 12.9 µM (inactive) | 0.543 µM (active) | 2.33 µM (inactive) | 4.4 µM (inactive) | 4.95 µM (inactive) | 4.67 µM (inactive) | > 31.3 µM (inactive) | > 49.1 µM (inactive) | 1.8 µM (inactive) | 3.15 µM (inactive) | 6.12 µM (inactive) | > 27 µM (inactive) | > 84.1 µM (inactive) | 2.64 µM (inactive) | 
2 | CN(CC(=O)N1CC(CCl)c2ccc([N+](=O)[O-])cc21)CC(=O)N1CC(CCl)c2ccc([N+](=O)[O-])cc21 (centres undefined) | > 100 µM (inactive) | > 100 µM (inactive) | 98.9 µM (inactive) | > 100 µM (inactive) | > 100 µM (inactive) | > 100 µM (inactive) | > 100 µM (inactive) | > 100 µM (inactive) | > 100 µM (inactive) | > 100 µM (inactive) | > 100 µM (inactive) | > 100 µM (inactive) |  | > 100 µM (inactive) | > 100 µM (inactive) | > 100 µM (inactive) | > 100 µM (inactive) | > 100 µM (inactive) | > 100 µM (inactive) | 97.9 µM (inactive)
3 | C1CSCC2(COC2)CS1 | > 100 µM (inactive) | > 100 µM (inactive) | > 100 µM (inactive) | > 100 µM (inactive) |  | > 100 µM (inactive) | > 100 µM (inactive) |  | > 100 µM (inactive) | > 100 µM (inactive) | > 100 µM (inactive) | > 100 µM (inactive) | > 100 µM (inactive) | > 100 µM (inactive) | > 100 µM (inactive) | > 100 µM (inactive) | > 100 µM (inactive) | > 100 µM (inactive) |  | 
4 | O=C(N/N=C(/c1ccccc1)C(F)(F)F)c1ccncc1 | > 100 µM (inactive) | > 100 µM (inactive) | > 100 µM (inactive) | > 100 µM (inactive) | > 100 µM (inactive) |  | > 100 µM (inactive) |  | > 100 µM (inactive) | > 100 µM (inactive) | > 100 µM (inactive) |  |  | 64.3 µM (inactive) | > 100 µM (inactive) |  |  | > 100 µM (inactive) | > 100 µM (inactive) | > 100 µM (inactive)
5 | COc1ccc(C2(CC(C)O)SCCCS2)cc1 (centres undefined) | > 100 µM (inactive) | > 100 µM (inactive) | > 100 µM (inactive) | > 100 µM (inactive) | > 100 µM (inactive) | > 100 µM (inactive) | > 100 µM (inactive) | > 100 µM (inactive) | > 100 µM (inactive) | > 100 µM (inactive) | > 100 µM (inactive) | > 100 µM (inactive) | > 100 µM (inactive) | 42 µM (inactive) | > 100 µM (inactive) | > 100 µM (inactive) |  | > 100 µM (inactive) | > 100 µM (inactive) | > 100 µM (inactive)
6 | COc1cccc(-n2nnc3c(N)nc(N)nc32)c1 | > 100 µM (inactive) |  | > 100 µM (inactive) | 48.8 µM (inactive) | 33.3 µM (inactive) | 53.7 µM (inactive) | > 100 µM (inactive) | > 100 µM (inactive) | > 100 µM (inactive) | > 100 µM (inactive) | > 100 µM (inactive) | > 100 µM (inactive) | > 100 µM (inactive) | > 100 µM (inactive) | > 100 µM (inactive) | > 100 µM (inactive) | > 100 µM (inactive) | > 100 µM (inactive) | > 100 µM (inactive) | > 100 µM (inactive)
7 | CCCCCCCCCCCCCCCCCCNc1ccn(C2OC(COP(=O)(O)OCC3OC(n4cc(C)c(=O)[nH]c4=O)CC3O)C(O)C2O)c(=O)n1 (centres undefined) | 29.9 µM (inactive) | 16.7 µM (inactive) | 14.9 µM (inactive) | 15.4 µM (inactive) | 18.4 µM (inactive) | 21.1 µM (inactive) | 18.4 µM (inactive) | 17.3 µM (inactive) | 17.1 µM (inactive) | 18.9 µM (inactive) | 15.8 µM (inactive) | 18.1 µM (inactive) | 15.1 µM (inactive) | 10.6 µM (inactive) | 34.6 µM (inactive) | 17.8 µM (inactive) | 17.7 µM (inactive) | 5.68 µM (inactive) | 17 µM (inactive) | 
8 | Nc1cc(Cl)cc2cc(Cl)cnc12 | 31.8 µM (inactive) | > 100 µM (inactive) | > 100 µM (inactive) | > 100 µM (inactive) | 75.2 µM (inactive) | > 100 µM (inactive) | > 100 µM (inactive) | > 100 µM (inactive) | > 100 µM (inactive) | > 100 µM (inactive) | > 100 µM (inactive) | > 100 µM (inactive) | > 100 µM (inactive) | 44.5 µM (inactive) | > 100 µM (inactive) | > 100 µM (inactive) | > 100 µM (inactive) | > 100 µM (inactive) | > 100 µM (inactive) | 
9 | CC1(C)CC(C2=NCCO2)CC(C)(C)N1 | > 100 µM (inactive) |  | > 100 µM (inactive) | > 100 µM (inactive) | > 100 µM (inactive) | > 100 µM (inactive) | > 100 µM (inactive) | > 100 µM (inactive) | > 100 µM (inactive) | > 100 µM (inactive) | > 100 µM (inactive) | > 100 µM (inactive) | > 100 µM (inactive) | > 100 µM (inactive) | 27.7 µM (inactive) | > 100 µM (inactive) | > 100 µM (inactive) | > 100 µM (inactive) | > 100 µM (inactive) | > 100 µM (inactive)
10 | CCCCn1c(-c2ccc([N+](=O)[O-])cc2)cs/c1=N/N=C1\C(=O)Nc2ccc(Br)cc21 | 26 µM (inactive) | 17.9 µM (inactive) | 14.1 µM (inactive) | 21.8 µM (inactive) | 19.6 µM (inactive) | 12.9 µM (inactive) | 16.2 µM (inactive) | 14 µM (inactive) | 19.5 µM (inactive) | 10.4 µM (inactive) | 17.1 µM (inactive) | 18.2 µM (inactive) | 12.6 µM (inactive) | 7.43 µM (inactive) | 3.28 µM (inactive) | 15.9 µM (inactive) | 18.9 µM (inactive) | 12.3 µM (inactive) | 12.1 µM (inactive) | 
11 | COc1cc(C(O)CCBr)c(OC)cc1C (centres undefined) | 23.6 µM (inactive) |  | 6.18 µM (inactive) | > 75.5 µM (inactive) | 14.6 µM (inactive) | 35.7 µM (inactive) | 2.79 µM (inactive) | 8.17 µM (inactive) | 35.3 µM (inactive) | 33.2 µM (inactive) | 7.43 µM (inactive) | 27.7 µM (inactive) | 52.8 µM (inactive) |  | 4.37 µM (inactive) | > 100 µM (inactive) | 8.95 µM (inactive) | > 66.8 µM (inactive) | 4.6 µM (inactive) | 16 µM (inactive)
12 | COc1ccc(/N=C2/SC(=N/N=c3\sc4ccccc4n3C)S/C2=N/c2ccc(OC)cc2)cc1 | 89.1 µM (inactive) | > 100 µM (inactive) | 98.9 µM (inactive) | > 100 µM (inactive) | 37.6 µM (inactive) | 36.8 µM (inactive) | > 100 µM (inactive) | > 100 µM (inactive) | 76.7 µM (inactive) | 55.5 µM (inactive) | > 100 µM (inactive) | > 100 µM (inactive) |  | 13.1 µM (inactive) | > 100 µM (inactive) | 20.4 µM (inactive) |  | > 100 µM (inactive) | > 100 µM (inactive) | > 100 µM (inactive)
13 | CN(CC(=O)O)c1ncc2c(n1)-c1ccccc1SC2 | > 100 µM (inactive) |  | > 100 µM (inactive) | > 100 µM (inactive) | > 100 µM (inactive) | > 100 µM (inactive) | > 100 µM (inactive) | > 100 µM (inactive) |  | > 100 µM (inactive) | > 100 µM (inactive) | > 100 µM (inactive) | > 100 µM (inactive) | > 100 µM (inactive) | 69.8 µM (inactive) | > 100 µM (inactive) | > 100 µM (inactive) | > 100 µM (inactive) | > 100 µM (inactive) | > 100 µM (inactive)
14 | Cc1ccc2c(c1C)CC1(Cc3c(ccc4c3CCC4)C1=O)C2=O (centres undefined) | > 100 µM (inactive) | > 100 µM (inactive) | > 100 µM (inactive) | > 100 µM (inactive) | > 100 µM (inactive) | > 100 µM (inactive) | > 100 µM (inactive) | 0.652 µM (active) | > 100 µM (inactive) | > 100 µM (inactive) | > 100 µM (inactive) | > 100 µM (inactive) | > 100 µM (inactive) | > 100 µM (inactive) | 21.9 µM (inactive) | > 100 µM (inactive) |  | > 100 µM (inactive) | 52.4 µM (inactive) | > 100 µM (inactive)
15 | Cc1cc(C)c2c(n1)S(=O)(=O)N(CCCN1CCN(c3cccc(C(F)(F)F)c3)CC1)C(C(=O)c1ccc(Cl)cc1)=C2O | 2.5 µM (inactive) |  | 2.22 µM (inactive) | 2.2 µM (inactive) | 4.74 µM (inactive) | 3.48 µM (inactive) | 3.15 µM (inactive) | 3.84 µM (inactive) | 5.81 µM (inactive) | 2.65 µM (inactive) | 2.12 µM (inactive) | 2.31 µM (inactive) | 3.06 µM (inactive) | 0.418 µM (active) | 3.26 µM (inactive) | 2.74 µM (inactive) | 0.515 µM (active) | 3.01 µM (inactive) | 2.65 µM (inactive) | 3.91 µM (inactive)

— ChEMBL document CHEMBL1201862, “PubChem BioAssay data set” (2004)
